According to patent US20260209301A1, “Galanin-2 Receptor Agonists” (LIFEARC, priority 2022, published 2026):
Read-outs that look alike come from different tables or passages of the source.

How the values were obtained:
[1] = tested on: mouse CCI model of neuropathic pain; format: in vivo; conditions: for minimal effective dose (at 4 hrs): von Frey, 4 hrs post-dose
Excerpt: The Chronic Constriction Injury (CCI) model of neuropathic pain involves unilateral loose ligation of four ligatures around the left sciatic nerve at mid-thigh level spaced 1 mm apart (Chaplan S R, et al J Neurosci Methods. 1994 July; 53(1):55-63). This procedure results in the development of hyperalgesia, allodynia and spontaneous pain (ectopic discharges) which can be measured using mechanical and thermal behavioural assessments. […] The mouse CCI model of neuropathic pain differs from that of the rat by virtue of 3 ligatures around the sciatic nerve instead of 4.
Static mechanical tactile allodynia: Static mechanical (tactile) allodynia was assessed by measurement of withdrawal threshold using calibrated (force; g) von-Frey monofilaments (Touch-Test Sensory Evaluator; Scientific Marketing Associates) applied to the plantar surface of the hindpaw. The animals were placed in individual Perspex boxes on a raised metal mesh for 30-40 min before the test. A series of graduated von Frey hairs (0.07, 0.16, 0.4, 0.6 and 1 g) was applied in sequence with a protocol of 1 sec on 1 sec off repeated 10 times. Each hair was applied perpendicularly to the centre of the ventral surface of the paw until it bent slightly. The force applied to the hind-paw of the animal to induce 5 responses out of 10 trials was recorded as paw withdrawal threshold (PWT).
Baseline PWT was assessed on three consecutive days (Day-2, Day-1 and Day 0) and the mean of the last two readings used as the baseline withdrawal threshold.
On Day 1, neuropathic pain was induced via ligation of the sciatic nerve using three loose ligatures of prolene sutures (Chronic Constriction Injury). Under Isoflurane anaesthesia mixed with oxygen (3:1, 1 L/min) the left hind leg was shaved mid-thigh level and an incision made through the skin using a scalpel. The biceps femoris muscle layer was dissected by making an initial incision using a pair of sharp scissors, which was then widened using a pair of blunt scissors. The common sciatic nerve was exposed using a pair of forceps and 3 loose ligatures of prolene (7-0, Ethicon) were tied around the sciatic nerve with 1 mm spacing between each. The nerve was then returned below the muscle layer and the wound closed using absorbable sutures (Vicryl).
Von Frey assessment of mechanical allodynia was taken on days 19 and 22. Animals were then ranked and randomised (based on a Latin square design) to treatment groups according to the percentage change (compared to pre-surgery baseline) of the mean mechanical withdrawal threshold observed on days 19 and 22. Only those animals showing a PWT percentage change of >60% from pre-surgery baseline were included in the study.
Dosing took place on day 23 with either vehicle, test compound (i.p.) or Pregabalin (15 mg/kg p.o.) at 10 ml/kg. Allodynia was then assessed at intervals thereafter e.g. 2, 4 and 24 hours post dose. von Frey measurement continued until activity disappeared up to day 27.
For studies involving a repeat administration, dosing took place on day 23 with either vehicle, test compound (i.p.) or Pregabalin (15 mg/kg p.o.) at 10 mL/kg. Allodynia was then assessed at intervals thereafter e.g. 4, 24 and 48 hours post dose. Animals were re-dosed at 68, 116, 164, 212, 260, 308 hours, with von Frey measurements conducted 4 hrs after each administration. Allodynia was therefore measured at 72, 120, 168, 216, 264, and 312 hours post initial dose, equating to repeat dosing 2, 3, 4, 5, 6 and 7 times, respectively
Evaluation of study & Statistical analysis: vF withdrawal threshold (g) was assessed by a series of graduated von Frey hairs (0.07, 0.16, 0.4, 0.6 and 1 g) applied in sequence to the ipsilateral hindpaw with a protocol of 1 sec on 1 sec off repeated 10 times. Each hair was applied perpendicularly to the centre of the ventral surface of the paw until it bent slightly. […]

[2] = tested on: mouse CFA model of inflammatory pain; test: CFA-induced inflammatory pain model, weight bearing; format: in vivo
Excerpt: Intraplantar injection of Complete Freunds adjuvant (CFA) causes an inflammatory reaction which induces hypersensitivity and oedema and mimics some aspects of clinical inflammatory pain. These effects can be investigated using equipment to measure the […]. Naive mice distribute their body weight equally between the two hind paws. When the injected hind paw is inflamed and/or painful, the weight is re-distributed so that less weight is put on the affected paw (decrease in weight bearing on injured paw). Weight bearing through each hind limb is measured using an incapacitance tester (Linton Instruments, UK).
Environmental conditions: Animals were housed in standard caging and laboratory conditions in groups of 2-5, with free access to food (5CR4, Purina) and water (except during placement in the incapacitance box) on a 12/12 light/dark cycle. […] Weight bearing: Mice were placed in the incapacitance tester with the hind paws on separate sensors and the average force exerted by both hind limbs was recorded over 2 seconds. […] Prior to test compound treatment, weight bearing readings were taken to assess baseline hypersensitivity 23 hours post-CFA. […] Weight bearing was then assessed at 4, 24, 48 and 72 hours post-test compound treatment.
Weight bearing (g) readings were taken for both right and left hind paws and the difference calculated. […]

| Substance | reversal of CCI-induced mechanical hyperalgesia ([1]; 3, 10 and 30 mg/kg i.p., 2 and 4 hrs) | effect on CCI-induced mechanical hyperalgesia at 24 hrs ([1]; 24 hrs, any of the doses tested (1-30 mg/kg i.p.)) | minimal effective dose (at 4 hrs) ([1]; mouse CCI) [mg/kg i.p.] | effect on withdrawal threshold, low dose ([1]; 0.03 mg/kg i.p., 4 hours) | effect on withdrawal threshold, low dose ([1]; 0.1 mg/kg, 24 hours) | effect-desensitisation on repeat administration ([1]; 0.3 and 1 mg/kg i.p., re-dosed days 3-13) | duration of statistically significant reversal of mechanical hyperalgesia ([1]; mouse CCI, highest and lowest doses tested) | Minimum Effective Dose [MED] ([1]; mouse CCI, multiple studies taken collectively) [mg/kg i.p.] | sustained reversal on repeat dosing, duration ([1]; mouse CCI, repeat dosing) [days] | minimal effective dose ([1]; mouse CCI, study with 1, 3, 10 and 30 mg/kg i.p.) [mg/kg i.p.] | sedation (observational during testing) ([1]; mouse, in vivo) | MED, reversal of hyperalgesia induced by CFA [2] [mg/kg i.p.] | duration of reversal of hyperalgesia induced by CFA [2] [h] |
| --- | --- | --- | --- | --- | --- | --- | --- | --- | --- | --- | --- | --- | --- |
| Gal2-30FC: galanin 2-30, AEAAAKEAAAKA linker, human IgG1 FC; SEQ ID NO: 28 | efficacious and reversed CCI-induced mechanical hyperalgesia | not at 24 hrs | 3 | – | – | – | – | – | – | – | – | – | – |
| Gal2-13FC: galanin 2-13, AEAAAKEAAAKA linker, human IgG1 FC; SEQ ID NO: 7 | – | – | 0.03 | effective | statistically significant | no loss of effect | up to 96 hrs post-dose | ≤ 0.03 | ≥ 13 | ≤ 1 | not associated with overt sedation | ≤ 1 | ≥ 72 |
